Assay [1] deals with T1, human mAChR M1 (Homo sapiens, UniProt P11229).
T1 sequence (P11229 1-460): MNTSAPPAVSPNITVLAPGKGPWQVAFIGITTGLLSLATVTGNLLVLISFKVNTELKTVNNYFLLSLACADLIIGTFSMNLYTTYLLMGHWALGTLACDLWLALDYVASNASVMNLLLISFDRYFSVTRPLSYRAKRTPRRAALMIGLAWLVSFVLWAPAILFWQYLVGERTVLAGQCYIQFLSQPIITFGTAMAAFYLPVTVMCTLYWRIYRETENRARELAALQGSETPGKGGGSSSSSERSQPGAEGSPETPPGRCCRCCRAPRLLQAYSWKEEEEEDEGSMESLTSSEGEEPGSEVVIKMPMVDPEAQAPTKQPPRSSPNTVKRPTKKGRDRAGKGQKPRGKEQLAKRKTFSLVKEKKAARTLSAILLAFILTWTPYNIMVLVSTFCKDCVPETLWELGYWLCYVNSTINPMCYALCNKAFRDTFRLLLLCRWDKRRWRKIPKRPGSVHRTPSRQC
The experiment in a line: mAChR M1 cell-based functional assay (calcium mobilization), PAM mode: increase in the EC20 acetylcholine response. An excerpt: (§1) Chinese hamster ovary (CHO-K1) cells stably expressing rat (r)M1 were purchased from the American Type Culture Collection and cultured according to their indicated protocol. CHO cells stably expressing human (h)M2, hM3, and hM5 were described previously (Levey, et al., 1991); hM1 and hM4 cDNAs were purchased from Missouri S&T cDNA Resource; rM4 cDNA was provided by T. I. Bonner (National Institutes of Health, Bethesda, MD). rM2 and rM3 were cloned from a rat brain cDNA library and sequence verified. hM1, rM2, rM3, hM4, and rM4 cDNAs were used to stably transfect CHO-K1 cells purchased from the American Type Culture Collection using Lipofectamine2000. To make stable rM2, hM2, rM3, hM4, and rM4 cell lines for use in calcium mobilization assays, these cells also were stably transfected with a chimeric G-protein (Gqi5) (provided by B. R. Conklin, University of California, San Francisco) using Lipofectamine 2000. rM1, hM1, rM3, hM3, rM5, and hM5 cells were grown in Ham's F-12 medium containing 10% heat-inactivated fetal bovine serum (FBS), 20 mM HEPES, and 50 μg/mL G418 sulfate. rM2-Gqi5, hM2-Gqi5, and hM4-Gqi5 cells were grown in the same medium also containing 500 μg/mL Hygromycin B. Stable rM4-Gqi5 cells were grown in DMEM containing 10% heat-inactivated FBS, 20 mM HEPES, 400 μg/mL G418 sulfate, and 500 μg/mL Hygromycin B.
(§2) For high throughput measurement of agonist-evoked increases in intracellular calcium, CHO-K1 cells stably expressing muscarinic receptors were plated in growth medium lacking G418 and hygromycin at 15,000 cells/20 μL/well in Greiner 384-well black-walled, tissue culture (TC)-treated, clear-bottom plates (VWR). Cells were incubated overnight at 37° C. and 5% C02. The next day, cells were washed using an ELX 405 (BioTek) with four washes (80 μL) of assay buffer then aspirated to 20 μL. Next, 20 μL of 16 μM Fluo-4/acetoxymethyl ester (Invitrogen, Carlsbad, CA) prepared as a 2.3 mM stock in DMSO and mixed in a 1:1 ratio with 10% (w/v) Pluronic F-127 and diluted in assay buffer was added to the wells and the cell plates were incubated for 50 min at 37° C. and 5% C02. Dye was removed by washing with the ELX 405 (four 80 μL washes of assay buffer) then aspirated to 20 μL. Compound master plates were formatted in an 11 point CRC format (1:3 dilutions) in 100% DMSO with a starting concentration of 10 mM using the BRAVO liquid handler (Agilent). Test compound CRCs were then transferred to daughter plates (240 nL) using the Echo acoustic plate reformatter (Labcyte, Sunnyvale, CA) and then diluted into assay buffer (40 μL) to a 2× stock using a Thermo Fisher Combi (Thermo Fisher Scientific, Waltham, MA).
Calcium flux was measured using the Functional Drug Screening System (FDSS) 6000 (Hamamatsu Corporation, Tokyo, Japan) as an increase in the fluorescent static ratio. Compounds were applied to cells (20 μL, 2×) using the automated system of the FDSS 6000 at 4 s into the 300 s protocol and the data were collected at 1 Hz. At 144 s into the 300 s protocol, 10 μL of an EC20 concentration of the muscarinic receptor agonist acetylcholine was added (5×), followed by the addition of 12 μL of an EC80 concentration of acetylcholine at the 230 s time point (5×). Agonist activity was analyzed as a concentration-dependent increase in calcium mobilization upon compound addition. Emax values for agonist activity are expressed relative to the maximum for acetylcholine. Positive allosteric modulator activity was analyzed as a concentration-dependent increase in the EC20 acetylcholine response. Antagonist activity was analyzed as a concentration-dependent decrease in the EC80 acetylcholine response. Concentration-response curves were generated using a four-parameter logistical equation in XLfit curve fitting software (IDBS, Bridgewater, NJ) for Excel (Microsoft, Redmond, WA) or Prism (GraphPad Software, Inc., San Diego, CA). […]

In assay [2] the target is T1, human mAChR M1. The experiment in a line: mAChR M1 cell-based functional assay (calcium mobilization), agonist mode: compound alone, Emax relative to acetylcholine maximum. Particulars: for Agonist Activity Human M1 EC50 / EC50: human mAChR M1; for Emax: relative to the maximum for acetylcholine; call rule not given here.
Description: as §1, §2
Calcium flux was measured using the Functional Drug Screening System (FDSS) 6000 (Hamamatsu Corporation, Tokyo, Japan) as an increase in the fluorescent static ratio. Compounds were applied to cells (20 μL, 2×) using the automated system of the FDSS 6000 at 4 s into the 300 s protocol and the data were collected at 1 Hz. At 144 s into the 300 s protocol, 10 μL of an EC20 concentration of the muscarinic receptor agonist acetylcholine was added (5×), followed by the addition of 12 μL of an EC80 concentration of acetylcholine at the 230 s time point (5×). Agonist activity was analyzed as a concentration-dependent increase in calcium mobilization upon compound addition. Emax values for agonist activity are expressed relative to the maximum for acetylcholine. Positive allosteric modulator activity was analyzed as a concentration-dependent increase in the EC20 acetylcholine response. Antagonist activity was analyzed as a concentration-dependent decrease in the EC80 acetylcholine response. Concentration-response curves were generated using a four-parameter logistical equation in XLfit curve fitting software (IDBS, Bridgewater, NJ) for Excel (Microsoft, Redmond, WA) or Prism (GraphPad Software, Inc., San Diego, CA).

Take `[2H]C1([2H])c2ncccc2C(=O)N1Cc1c(F)cc(-c2ccc(C)c3nn(C([2H])([2H])[2H])cc23)cc1F` [Compound 52, 6-(2,6-difluoro-4-(7-methyl-2-(methyl-d3)-2H-indazol-4-yl)benzyl)-6,7-dihydro-5H-pyrrolo[3,4-b]pyridin-5-one-7,7-d2]: on human mAChR M1 [1], the 50% effective concentration (EC50) is 0.317 µM and the Emax was 85%. In addition, on human mAChR M1 [2], the “Agonist Activity Human M1 EC50” value is on record as “Inactive” and the maximal effect (Emax) was 2%.

Consider `[2H]C1([2H])c2ncccc2C(=O)N1Cc1c(F)cc(-c2ccc(OCCOC(C)C)c3nn(C)cc23)cc1F` [Compound 149, 6-(2,6-difluoro-4-(7-(2-isopropoxyethoxy)-2-methyl-2H-indazol-4-yl)benzyl)-6,7-dihydro-5H-pyrrolo[3,4-b]pyridin-5-one-7,7-d2], for which the values for the 50% effective concentration (EC50) at human mAChR M1 [1] and at human mAChR M1 [2] were 0.717 µM and ≥ 10 µM, respectively. The figures for the Emax on human mAChR M1 [1] and at human mAChR M1 [2] were 77% and 26%, respectively.

`[2H]C1([2H])c2ncccc2C(=O)N1Cc1c(F)cc(-c2cccc3nn(C)cc23)cc1F` [Compound 1, 6-(2,6-difluoro-4-(2-methyl-2H-indazol-4-yl)benzyl)-6,7-dihydro-5H-pyrrolo[3,4-b]pyridin-5-one-7,7-d2]: at human mAChR M1 [1], the EC50 was 0.538 µM and the maximal response (Emax) came to 84%. For the same molecule, on human mAChR M1 [2], the “Agonist Activity Human M1 EC50” value is on record as “Inactive” and the Emax was found to be 8%.

Turning to `[2H]C1([2H])c2ncccc2C(=O)N1Cc1c(F)cc(-c2ccc(OCCOC)c3nn(C)cc23)cc1Cl` [Compound 170, 6-(2-chloro-6-fluoro-4-(7-(2-methoxyethoxy)-2-methyl-2H-indazol-4-yl)benzyl)-6,7-dihydro-5H-pyrrolo[3,4-b]pyridin-5-one-7,7-d2], at human mAChR M1 [1], the 50% effective concentration (EC50) was found to be 0.322 µM and the maximal effect (Emax) stood at 81%. At human mAChR M1 [2], the “Agonist Activity Human M1 EC50” value is listed as “Inactive” and the Emax is 9%.

On to `[2H]C1([2H])c2ncccc2C(=O)N1Cc1c(F)cc(-c2cc(C)cc3nn(C)cc23)cc1F` [Compound 32, 6-(4-(2,6-dimethyl-2H-indazol-4-yl)-2,6-difluorobenzyl)-6,7-dihydro-5H-pyrrolo[3,4-b]pyridin-5-one-7,7-d^2], for which, on human mAChR M1 [1], the half-maximal effective concentration (EC50) was determined as 0.594 µM and the maximal effect (Emax) came to 86%. Also, at human mAChR M1 [2], the 50% effective concentration (EC50) worked out at 5.46 µM and the Emax was 16%.

With `[2H]C1([2H])c2ncccc2C(=O)N1Cc1c(C)cc(-c2ccc(F)c3nn(C)cc23)cc1F` [Compound 198, 6-(2-fluoro-4-(7-fluoro-2-methyl-2H-indazol-4-yl)-6-methylbenzyl)-6,7-dihydro-5H-pyrrolo[3,4-b]pyridin-5-one-7,7-d2], the values for the EC50 on human mAChR M1 [1] and at human mAChR M1 [2] were 0.347 µM and 5.6 µM, respectively. Also, the maximum response (Emax) at human mAChR M1 [1] came out at 79%; on human mAChR M1 [2] it was 30%.

Regarding `[2H]C1([2H])c2ncccc2C(=O)N1Cc1ccc(-c2ccc(C)c3nn(C([2H])([2H])[2H])cc23)cc1F` [Compound 56, 6-(2-fluoro-4-(7-methyl-2-(methyl-d3)-2H-indazol-4-yl)benzyl)-6,7-dihydro-5H-pyrrolo[3,4-b]pyridin-5-one-7,7-d2], at human mAChR M1 [1], the half-maximal effective concentration (EC50) came out at 0.317 µM and the Emax turned out to be 87%. For the same molecule, on human mAChR M1 [2], the “Agonist Activity Human M1 EC50” value is on record as “Inactive” and the Emax stood at 5%.

`[2H]C1([2H])c2ncccc2C(=O)N1Cc1ccc(-c2ccc3cn(C)nc3c2)cc1F` [Compound 20, 6-(2-fluoro-4-(2-methyl-2H-indazol-6-yl)benzyl)-6,7-dihydro-5H-pyrrolo[3,4-b]pyridin-5-one-7,7-d2]: at human mAChR M1 [1], the EC50 stood at 3.97 µM and the maximal response (Emax) was 75%. At human mAChR M1 [2], the “Agonist Activity Human M1 EC50” value is given as “Inactive” and the maximal response (Emax) was 3%.

On to `[2H]C1([2H])c2ncccc2C(=O)N1Cc1ccc(-c2ccc(OC[C@@H](C)OC)c3nn(C)cc23)cc1F` [Compound 175, (R)-6-(2-fluoro-4-(7-(2-methoxypropoxy)-2-methyl-2H-indazol-4-yl)benzyl)-6,7-dihydro-5H-pyrrolo[3,4-b]pyridin-5-one-7,7-d2], for which, on human mAChR M1 [1], the EC50 was 0.837 µM and the Emax was 86%. Moreover, at human mAChR M1 [2], the concentration for a half-maximal effect (EC50) is ≥ 10 µM and the maximal response (Emax) worked out at 12%.

On to `[2H]C1([2H])c2ncccc2C(=O)N1Cc1c(F)cc(-c2cccc3c2cnn3CC)cc1F` [Compound 65, 6-(4-(1-ethyl-1H-indazol-4-yl)-2,6-difluorobenzyl)-6,7-dihydro-5H-pyrrolo[3,4-b]pyridin-5-one-7,7-d2], for which, at human mAChR M1 [1], the EC50 stood at 1.3 µM and the Emax is 73%. At human mAChR M1 [2], the EC50 was > 10 µM and the maximal effect (Emax) is 2%.

On to `[2H]C1([2H])c2ncccc2C(=O)N1Cc1c(F)cc(-c2ccc(OCC)c3nn(C)cc23)cc1F` [Compound 96, 6-(4-(7-ethoxy-2-methyl-2H-indazol-4-yl)-2,6-difluorobenzyl)-6,7-dihydro-5H-pyrrolo[3,4-b]pyridin-5-one-7,7-d2], for which the values for the EC50 on human mAChR M1 [1] and at human mAChR M1 [2] were 0.211 µM and 7.52 µM, respectively. Also, the maximal response (Emax) stood at 80% on human mAChR M1 [1] and 26% at human mAChR M1 [2].

With `[2H]C1([2H])c2ncccc2C(=O)N1Cc1c(F)cc(-c2ccc(OCCOC)c3nn(C)cc23)cc1OCC(C)C` [Compound 218, 6-(2-fluoro-6-isobutoxy-4-(7-(2-methoxyethoxy)-2-methyl-2H-indazol-4-yl)benzyl)-6,7-dihydro-5H-pyrrolo[3,4-b]pyridin-5-one-7,7-d2], on human mAChR M1 [1], the EC50 amounted to 0.516 µM and the Emax is 79%. For the same molecule, at human mAChR M1 [2], the EC50 worked out at 7.76 µM and the Emax came to 25%.

Take `[2H]C1([2H])c2ncccc2C(=O)N1Cc1c(F)cc(-c2cccc3nn(C([2H])([2H])[2H])cc23)cc1C1CC1` [Compound 190, 6-(2-Cyclopropyl-6-fluoro-4-(2-(methyl-d3)-2H-indazol-4-yl)benzyl)-6,7-dihydro-5H-pyrrolo[3,4-b]pyridin-5-one-7,7-d2]: at human mAChR M1 [1], the EC50 amounted to 0.119 µM and the Emax was 84%. On human mAChR M1 [2], the EC50 was 7.52 µM and the maximal response (Emax) stood at 37%.

These data come from patent US20240228489A1, “POSITIVE ALLOSTERIC MODULATORS OF THE MUSCARINIC ACETYLCHOLINE RECEPTOR M1” (Vanderbilt University, priority 2021, published 2024).
